Measurements from patent publication US20090018194A1, “Use of antimicrobial agents derived from alliaceous plants for the prevention and control of crop diseases, post-harvest rot and as environmental disinifectant products” (DMC Research Center, S.L., priority 2007, published 2009).

What was measured:
[1] = test system: Penicillium solitum Wild strain; experiment: agar diffusion test with impregnated cellulose discs; type: cell-based; settings: incl. 6 mm disc
Fusarium spp. [2] = experiment: field tests on affected asparagus, Fusarium spp. in roots; type: in vivo; settings: 60 days after application, compared to untreated control
Method: (§1) The treatment doses used were 250, 500 and 1000 ppm of both active principles (PT and PTSO), and the initial incidence of the pathogen was compared with its presence 60 days after its application.
(§2) To analyze the growth of the crops infected by Fusarium spp. after the treatments, root and soil samples were taken and tests were performed in the laboratory to investigate the incidence of the pathogen in the roots and soil. The cultivation media used were potato dextrose agar and rose bengal agar (to prevent the invasive character of the Mucoralean fungi).
(§3) The soil analysis was conducted by sequential dilutions of the soils in physiological serum with a subsequent sowing in the above mentioned media. The analysis of the roots was performed after dissection of the infected tissues, which were deposited in triplicate on filter paper located above both media, and their evolution over time was studied.
(§4) The data are expressed as a percentage of elimination and reduction as a function of the treatment dose compared to the untreated control samples.

[3] = test system: Enteroccus faecalis ATCC 29212; experiment: agar diffusion test with impregnated cellulose discs; type: cell-based; settings: incl. 6 mm disc
[4] = test system: mixture of fungi (P. expansum, P. italicum, P. digitatum and A. alternata); experiment: disinfection of rooms by means of fogging
Fusarium spp. [5] = experiment: field tests on affected asparagus, Fusarium spp. in the soil; type: in vivo; settings: for % Reduction / % elimination: soil, 60 days after application, compared to untreated control
Method: as §1, §2, §3, §4

R. stolonifer = experiment: disinfection of artificially contaminated containers by drencher; design: species or system Rhizopus stolonifer; settings: drencher 30 seconds
Method: A test of the disinfection of containers (fruit boxes and crates) was conducted in which a level of artificial contamination was created by means of controlled inoculation, with the objective of determining optimum doses of application to achieve a satisfactory disinfection. First the containers (made of wood and plastic) were disinfected with sodium hypochlorite, and they were then artificially contaminated via controlled inoculations with different fungi characteristic of the fruit and vegetable processing sector. For this purpose, isolated wild strains were used which, after sporulation, were collected to create a suspension of mixed spores of various fungi (Penicillium expansum, Penicillium italicum, Penicillium digitarum and Alternario alternata) and, separately in simultaneous tests (as a result of its higher rate of growth and its invasive character), a suspension of Rhizopus stolonifer. […] After this fogging, the containers were allowed to dry. The containers were then sampled to determine the level of initial contamination achieved (by means of contact plates containing Rose Bengal agar). The containers were then treated in a pilot line […]. The hold time of the containers under the showers was 30 seconds, and the test doses were 750 ppm and 1050 ppm for PTS and 2000 ppm and 5000 ppm in the case of PTSO. After exiting the showers, the treated containers were allowed to dry, and were again sampled using contact plates with Rose Bengal agar to determine the final level of contamination. The sampling unit was 3 containers and 3 plates per repetition.

[6] = test system: Bacillus cereus ATCC 10876; experiment: agar diffusion test with impregnated cellulose discs; type: cell-based; settings: incl. 6 mm disc
[7] = test system: Ralstonia solanacearum Strain GM1000; type: cell-based; settings: in vitro tests
[8] = test system: Escherichia coli ATCC 25922; experiment: agar diffusion test with impregnated cellulose discs; type: cell-based; settings: incl. 6 mm disc
Penicillium expansum = experiment: reduction of spores in suspension in absence or presence of organic matter; type: cell-based; settings: PTSO 2000 ppm 1 min.
Excerpt: (§5) In addition, under the real conditions of a disinfecting bath for boxes, crates and containers, as well as for the disinfection of rooms and work surfaces, organic material (soil residue, rotten fruit, leaves etc.) is generally present, which can reduce the action of the disinfectant agent. Therefore, the effectiveness of PTS and PTSO has also been assessed in the presence of organic matter on two pathogens that cause post-harvest rot of stone fruit (Penicillium expansum) and citrus fruit (Penicillium digitatum).

Penicillium digitatum = experiment: as above; type: cell-based; settings: PTSO 2000 ppm 1 min.
Excerpt: as §5

post-harvest rot = post-harvest rot of oranges originating directly from the field (not inoculated); type: in vivo
Method: Once the oranges had been artificially contaminated, the treatments were conducted by immersing the oranges in solutions of PTS and PTSO prepared at doses of 1600 and 2500 ppm, and were stored at 20° C.
The assessment of the effectiveness of PTS and PTSO comprised counting of the number of fruits affected by rot in the inoculated zone, to determine the percentage of fruit affected for each treatment and fungus inoculated, and expressing this effectiveness as a percentage of reduction of the affected fruit.
On the basis of the results obtained by the application of PTS and PTSO to oranges of the Navelina variety originating directly from the field, both products, applied in the specified doses, are effective in the control of post-harvest rot. Both PTS and PTSO in turn reduce by 50% the quantity of fruit affected at the end of the refrigeration period (28 days at a temperature of 5° C.) compared to the untreated fruit, as a result of which they are an effective alternative to the synthetic treatments conventionally used.

[9] = organic matter Absence, 0 hours
[10] = organic matter Absence, 2 hours
[11] = organic matter Absence, 3 hours
[12] = organic matter Presence, 0 hours
[13] = organic matter Presence, 1 hour
[14] = organic matter Presence, 2 hours
[15] = organic matter Presence, 3 hours

## CCCSS(=O)(=O)CCC [PTSO, Propyl Propyl Thiosulfonate]
[1]; 60 ppm
  diameter of the microbial inhibition halo: 0 mm
[1]; 125 ppm
  diameter of the microbial inhibition halo: 12 mm
[1]; 250 ppm
  diameter of the microbial inhibition halo: 20 mm
[1]; 500 ppm
  diameter of the microbial inhibition halo: 30 mm
[1]; 1000 ppm
  diameter of the microbial inhibition halo: 40 mm
Fusarium spp. [2]; 250 ppm
  % Reduction: 25%
  % elimination: 33%
Fusarium spp. [2]; 500 ppm
  % Reduction: 14%
  % elimination: 86%
Fusarium spp. [2]; 1000 ppm
  % Reduction: 43%
  % elimination: 57%
[3]; 60 ppm
  diameter of the microbial inhibition halo: 26 mm
[3]; 125 ppm
  diameter of the microbial inhibition halo: 33 mm
[3]; 250 ppm
  diameter of the microbial inhibition halo: 45 mm
[3]; 500 ppm
  diameter of the microbial inhibition halo: 45 mm
[3]; 1000 ppm
  diameter of the microbial inhibition halo: 45 mm
[4]; 2000 ppm, Environment
  Reduction in the population of the mixture of fungi expressed in %: 100%
[4]; 2000 ppm, Walls
  Reduction in the population of the mixture of fungi expressed in %: 95%
[4]; 5000 ppm, Environment
  Reduction in the population of the mixture of fungi expressed in %: 100%
[4]; 5000 ppm, Walls
  Reduction in the population of the mixture of fungi expressed in %: 100%
Fusarium spp. [5]; 250 ppm
  % Reduction: 15%
  % elimination: 85%
Fusarium spp. [5]; 500 ppm
  % Reduction: 25%
  % elimination: 75%
Fusarium spp. [5]; 1000 ppm
  % Reduction: 0%
  % elimination: 100%
Fusarium spp. [5]; Fusarium spp. in asparagus, disinfection of agricultural soil
  effectiveness of the application (in words): highly effective
R. stolonifer; 2000 ppm, Plastic container
  Reduction of the population (%): 100%
R. stolonifer; 2000 ppm, Wood container
  Reduction of the population (%): 96%
R. stolonifer; 5000 ppm, Plastic container
  Reduction of the population (%): 100%
R. stolonifer; 5000 ppm, Wood container
  Reduction of the population (%): 98%
[6]; 60 ppm
  diameter of the microbial inhibition halo: 25 mm
[6]; 125 ppm
  diameter of the microbial inhibition halo: 35 mm
[6]; 250 ppm
  diameter of the microbial inhibition halo: 45 mm
[6]; 500 ppm
  diameter of the microbial inhibition halo: 47 mm
[6]; 1000 ppm
  diameter of the microbial inhibition halo: 49 mm
[7]
  effectiveness of the application (in words): highly effective
[8]; 60 ppm
  diameter of the microbial inhibition halo: 18 mm
[8]; 125 ppm
  diameter of the microbial inhibition halo: 19 mm
[8]; 250 ppm
  diameter of the microbial inhibition halo: 26 mm
[8]; 500 ppm
  diameter of the microbial inhibition halo: 27 mm
[8]; 1000 ppm
  diameter of the microbial inhibition halo: 29 mm
Penicillium expansum; [9]
  Reduction of the population (%): 100%
Penicillium expansum; organic matter Absence, 1 hour
  Reduction of the population (%): 100%
Penicillium expansum; [10]
  Reduction of the population (%): 100%
Penicillium expansum; [11]
  Reduction of the population (%): 100%
Penicillium expansum; [12]
  Reduction of the population (%): 100%
Penicillium expansum; [13]
  Reduction of the population (%): 100%
Penicillium expansum; [14]
  Reduction of the population (%): 100%
Penicillium expansum; [15]
  Reduction of the population (%): 85%
Penicillium digitatum; [9]
  Reduction of the population (%): 100%
Penicillium digitatum; organic matter Absence, 1 hour
  Reduction of the population (%): 100%
Penicillium digitatum; [10]
  Reduction of the population (%): 100%
Penicillium digitatum; [11]
  Reduction of the population (%): 100%
Penicillium digitatum; [12]
  Reduction of the population (%): 100%
Penicillium digitatum; [13]
  Reduction of the population (%): 100%
Penicillium digitatum; [14]
  Reduction of the population (%): 100%
Penicillium digitatum; [15]
  Reduction of the population (%): 100%
post-harvest rot; 2500 ppm, oranges refrigerated for 28 days at 5° C., 200 fruits not inoculated
  % of fruit affected: 15%
post-harvest rot; specified doses, end of the refrigeration period (28 days at 5° C.)
  reduction of the quantity of fruit affected compared to the untreated fruit: 50%
